Results reported in ChEMBL document CHEMBL1201862, “PubChem BioAssay data set” (2004).
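Results reflect a 48-hour exposure of cells in 96-well plates to compound at five concentrations. Here, GI50 denotes the concentration required for 50% inhibition of growth.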 Activity calls are given as the source filed them. Cut-off read from the data, not from the text of the source: active = GI50 up to about 1.1 µM and inactive = higher.

Tests used:
Test in all cases: inhibition of tumour cell growth, NCI panel, 48 h
[1] = system: A498
[2] = system: A549
[3] = system: CAKI-1
[4] = system: EKVX
[5] = system: HOP-92
[6] = system: HT-29
[7] = system: KM12
[8] = system: MOLT-4
[9] = system: NCI-H460
[10] = system: NCI-H522
[11] = system: OVCAR-4
[12] = system: OVCAR-8
[13] = system: RPMI-8226
[14] = system: SF-268
[15] = system: SK-MEL-28
[16] = system: SK-MEL-5
[17] = system: SN12C
[18] = system: SR
[19] = system: MDA-MB-231

| SMILES | GI50 [1] | GI50 [2] | GI50 [3] | GI50 [4] | GI50 [5] | GI50 [6] | GI50 [7] | GI50 [8] | GI50 [9] | GI50 [10] | GI50 [11] | GI50 [12] | GI50 [13] | GI50 [14] | GI50 [15] | GI50 [16] | GI50 [17] | GI50 [18] | GI50 [19] |
| --- | --- | --- | --- | --- | --- | --- | --- | --- | --- | --- | --- | --- | --- | --- | --- | --- | --- | --- | --- |
| CC1=C(C(=O)CC(=O)C(=O)Nc2ccccc2C)Sc2ccccc2N1 | > 100 µM (inactive) | > 69.3 µM (inactive) | > 100 µM (inactive) | > 100 µM (inactive) | > 67.9 µM (inactive) | > 100 µM (inactive) | > 100 µM (inactive) | > 100 µM (inactive) | > 40.4 µM (inactive) | > 55 µM (inactive) | > 100 µM (inactive) | > 100 µM (inactive) | > 45 µM (inactive) | > 67 µM (inactive) | > 100 µM (inactive) | > 100 µM (inactive) | > 100 µM (inactive) | > 100 µM (inactive) | – |
| O=C(O)CCSc1nnc(COc2ccc(Cl)cc2)n1-c1ccccc1 | > 100 µM (inactive) | > 100 µM (inactive) | > 100 µM (inactive) | > 100 µM (inactive) | > 100 µM (inactive) | > 100 µM (inactive) | > 100 µM (inactive) | > 100 µM (inactive) | > 100 µM (inactive) | > 100 µM (inactive) | > 100 µM (inactive) | > 100 µM (inactive) | – | > 100 µM (inactive) | > 100 µM (inactive) | – | > 100 µM (inactive) | – | > 100 µM (inactive) |
| CC1CC[C@]2(C(=O)O)CCC3(C)C(=CCC4[C@@]5(C)CC[C@H](OS(=O)(=O)c6ccccc6)C(C)(C)C5CC[C@]43C)[C@@H]2[C@H]1C (some centres undefined) | > 100 µM (inactive) | 36.6 µM (inactive) | > 100 µM (inactive) | 55.1 µM (inactive) | > 100 µM (inactive) | > 100 µM (inactive) | > 100 µM (inactive) | 34.3 µM (inactive) | > 100 µM (inactive) | 53.8 µM (inactive) | > 100 µM (inactive) | > 100 µM (inactive) | 35 µM (inactive) | > 100 µM (inactive) | > 100 µM (inactive) | > 100 µM (inactive) | > 100 µM (inactive) | 36.8 µM (inactive) | – |
| CCCNC1=Nc2ccccc2[C@@H]2N(C)c3ccccc3C(C)C[C@]12C (some centres undefined) | 14.4 µM (inactive) | 28.8 µM (inactive) | 26.3 µM (inactive) | 32.4 µM (inactive) | – | 13.2 µM (inactive) | 20.3 µM (inactive) | 18.1 µM (inactive) | 24.5 µM (inactive) | 18.2 µM (inactive) | 5.7 µM (inactive) | 14.7 µM (inactive) | 18.7 µM (inactive) | 21.6 µM (inactive) | 18.3 µM (inactive) | 15.6 µM (inactive) | 37.1 µM (inactive) | – | 15.8 µM (inactive) |
| Oc1ccc(Br)cc1/C=N/c1ccc(Oc2ccc(/N=C/c3cc(Br)ccc3O)cc2)cc1 | > 19.6 µM (inactive) | > 19.6 µM (inactive) | > 19.6 µM (inactive) | > 19.6 µM (inactive) | > 19.6 µM (inactive) | > 19.6 µM (inactive) | > 19.6 µM (inactive) | > 19.6 µM (inactive) | > 19.6 µM (inactive) | > 19.6 µM (inactive) | > 19.6 µM (inactive) | > 19.6 µM (inactive) | > 19.6 µM (inactive) | > 19.6 µM (inactive) | > 19.6 µM (inactive) | > 19.6 µM (inactive) | > 19.6 µM (inactive) | > 19.6 µM (inactive) | – |
| O=[N+]([O-])c1ccc2c(c1)nc1n2C(c2c(F)cccc2F)SC1 (centres undefined) | – | > 100 µM (inactive) | – | > 100 µM (inactive) | 62.1 µM (inactive) | > 100 µM (inactive) | > 100 µM (inactive) | > 100 µM (inactive) | > 100 µM (inactive) | > 100 µM (inactive) | > 100 µM (inactive) | > 100 µM (inactive) | > 100 µM (inactive) | > 100 µM (inactive) | > 100 µM (inactive) | > 100 µM (inactive) | > 100 µM (inactive) | > 100 µM (inactive) | > 100 µM (inactive) |
| COc1ccc(/C=C\c2cc(OC)c(OC)c(OC)c2)cc1 | < 0.01 µM (active) | 0.00051 µM (active) | < 0.01 µM (active) | 0.00264 µM (active) | 0.0127 µM (active) | < 0.01 µM (active) | 0.000124 µM (active) | 0.000506 µM (active) | < 0.01 µM (active) | 0.000364 µM (active) | – | 0.000832 µM (active) | 0.00049 µM (active) | 0.000766 µM (active) | < 0.01 µM (active) | < 0.0001 µM (active) | 0.000843 µM (active) | < 0.01 µM (active) | – |
| Clc1ccc2[nH]c(CC3CCCC3)nc2c1 | – | 21.7 µM (inactive) | 3.31 µM (inactive) | 17.5 µM (inactive) | 12.9 µM (inactive) | 12.2 µM (inactive) | 14.5 µM (inactive) | 11 µM (inactive) | 17.6 µM (inactive) | 5.74 µM (inactive) | 14.9 µM (inactive) | 25.6 µM (inactive) | 12.1 µM (inactive) | 19.3 µM (inactive) | 22.8 µM (inactive) | 11 µM (inactive) | 16.9 µM (inactive) | 2.45 µM (inactive) | 17.7 µM (inactive) |
| CC1(C)C(=O)C(=Cc2ccco2)C1=O | > 100 µM (inactive) | > 100 µM (inactive) | > 100 µM (inactive) | > 100 µM (inactive) | > 100 µM (inactive) | > 100 µM (inactive) | > 100 µM (inactive) | > 100 µM (inactive) | > 100 µM (inactive) | > 100 µM (inactive) | > 100 µM (inactive) | > 100 µM (inactive) | > 100 µM (inactive) | > 100 µM (inactive) | > 100 µM (inactive) | > 100 µM (inactive) | > 100 µM (inactive) | > 100 µM (inactive) | – |
| CC(=O)OC1OC2C(NC(=O)OC(C)(C)C)C1CC2(OCc1ccccc1)OCc1ccccc1 (centres undefined) | 19.4 µM (inactive) | 36.5 µM (inactive) | 32.4 µM (inactive) | 34.7 µM (inactive) | 12.5 µM (inactive) | 33.7 µM (inactive) | 27.8 µM (inactive) | 9.71 µM (inactive) | 34.8 µM (inactive) | 15.1 µM (inactive) | – | 53.8 µM (inactive) | 11.6 µM (inactive) | 35.7 µM (inactive) | 20.9 µM (inactive) | 17.6 µM (inactive) | 27.2 µM (inactive) | 17.8 µM (inactive) | – |
| O=C(NC1C2CC3CC(C2)CC1C3)/C(Cl)=C1/Sc2ccccc2NC1=O (centres undefined) | > 100 µM (inactive) | > 100 µM (inactive) | > 100 µM (inactive) | > 100 µM (inactive) | > 76.4 µM (inactive) | > 100 µM (inactive) | > 62.8 µM (inactive) | 16.7 µM (inactive) | > 89.9 µM (inactive) | > 100 µM (inactive) | > 100 µM (inactive) | > 100 µM (inactive) | – | > 100 µM (inactive) | > 100 µM (inactive) | > 100 µM (inactive) | > 100 µM (inactive) | 44.5 µM (inactive) | – |
| N#Cc1c2ccccc2c(Cc2ccc3c(c2)OCCOCCOCCOCCOCCO3)c2ccccc12 | 13.3 µM (inactive) | 4.29 µM (inactive) | 10.1 µM (inactive) | 16.3 µM (inactive) | 3.99 µM (inactive) | – | 5.5 µM (inactive) | 2.82 µM (inactive) | 6.7 µM (inactive) | 10.8 µM (inactive) | 3 µM (inactive) | 5.65 µM (inactive) | 3.11 µM (inactive) | 5.28 µM (inactive) | 3.28 µM (inactive) | 4.35 µM (inactive) | 10.1 µM (inactive) | 24.5 µM (inactive) | – |
| CCOc1ccc2c(c1)[n+]([O-])c(-c1ccc(Cl)cc1)c(N)[n+]2[O-] | > 100 µM (inactive) | > 100 µM (inactive) | > 100 µM (inactive) | 95.7 µM (inactive) | > 100 µM (inactive) | > 100 µM (inactive) | > 100 µM (inactive) | 44.3 µM (inactive) | > 100 µM (inactive) | 34.4 µM (inactive) | > 100 µM (inactive) | > 100 µM (inactive) | 10.8 µM (inactive) | > 100 µM (inactive) | > 100 µM (inactive) | > 100 µM (inactive) | > 100 µM (inactive) | > 100 µM (inactive) | – |
| Cc1cc([N+](=O)[O-])ccc1Sc1c2ccccc2nc2cc(Cl)ccc12 | > 100 µM (inactive) | 46.5 µM (inactive) | 26.2 µM (inactive) | 40.6 µM (inactive) | 23.4 µM (inactive) | – | 18.6 µM (inactive) | 21.3 µM (inactive) | 36.6 µM (inactive) | 27.7 µM (inactive) | 41.4 µM (inactive) | 21.8 µM (inactive) | – | 29.6 µM (inactive) | > 100 µM (inactive) | 39.4 µM (inactive) | 30.8 µM (inactive) | 26.9 µM (inactive) | – |
| Cc1nc2ccccc2c(=O)n1-c1ccccc1I | > 100 µM (inactive) | > 100 µM (inactive) | > 100 µM (inactive) | 70.6 µM (inactive) | – | > 100 µM (inactive) | – | > 100 µM (inactive) | > 100 µM (inactive) | > 100 µM (inactive) | > 100 µM (inactive) | > 100 µM (inactive) | > 100 µM (inactive) | > 100 µM (inactive) | > 100 µM (inactive) | > 100 µM (inactive) | > 100 µM (inactive) | > 100 µM (inactive) | – |
| O=C(c1ccccc1)C1(Br)S(=O)(=O)OCCOS1(=O)=O | > 100 µM (inactive) | > 100 µM (inactive) | – | > 100 µM (inactive) | > 100 µM (inactive) | > 100 µM (inactive) | – | > 100 µM (inactive) | > 100 µM (inactive) | > 100 µM (inactive) | > 100 µM (inactive) | > 100 µM (inactive) | > 100 µM (inactive) | > 100 µM (inactive) | > 100 µM (inactive) | > 100 µM (inactive) | > 100 µM (inactive) | > 100 µM (inactive) | – |
